# Data as given in article PMC5285354, “Cationic Net Charge and Counter Ion Type as Antimicrobial Activity Determinant Factors of Short Lipopeptides” (Frontiers in Microbiology, 2017).
# Like-named read-outs stand apart in the source and are kept apart here. Where a SMILES comes first, the peptide text is derived from it. The star is where a group is joined. Decanoyl = CCCCCCCCCC(=O)*; Octanoyl = CCCCCCCC(=O)*
# Assays:
# Assay type in all cases: cell-based
# [1] = test system: Pseudomonas aeruginosa (ATCC 9027); conditions: ATCC 9027, 24 h
# [2] = test system: Enterococcus faecalis (ATCC 29212); conditions: for MBC Enterococcus fecalis: subculture on Mueller-Hinton II Agar, 24 h 37°C
# Procedure: (§1) The minimum inhibitory concentration (MIC), minimum bactericidal concentration (MBC) and minimum fungicidal concentration (MFC) were determined according to the procedure recommended by the Clinical Laboratory Standards Institute (CLSI). The following reference strains were tested: Gram-negative E. coli (ATCC 25922), K. pneumoniae (ATCC 700603), P. vulgaris (PCM 2668), P. aeruginosa (ATCC 9027), Gram-positive S. aureus (ATCC 25923), S. epidermidis (PCM 2118), B. subtilis (ATCC 6633), E. faecalis (ATCC 29212) and fungi C. albicans (ATCC 10231), C. tropicalis (PCM 2681), and A. brasiliensis (ATCC 16404). All the microorganisms were from the Polish Collection of Microorganisms (Wroclaw, Poland). MIC was determined using a microbroth dilution method with Mueller-Hinton (MH) broth for bacteria and Sabouraud Dextrose broth for fungi (Becton Dickinson, Le Pont de Claix, France). An initial inoculum of 10^5 cfu/mL was used for bacteria and 10^3 cfu/mL for fungi. Polypropylene 96-well plates (Kartell, Noviglio, Italy) were incubated for 18 h at 37°C for bacteria and for 48 h at 25°C for the tested fungi. MIC (μg/mL) was taken as the lowest concentration of the lipopeptide, at which the observable growth was inhibited. […] The experiments were performed in triplicate on three different days.
# [3] = test system: Pseudomonas aeruginosa (ATCC 9027); conditions: for MBC Pseudomonas aeruginosa: subculture on Mueller-Hinton II Agar, 24 h 37°C
# Procedure: as §1
# [4] = test system: Proteus vulgaris (PCM 2668); conditions: PCM 2668, TFA salt, triplicate; for MIC Proteus vulgaris: Mueller-Hinton broth, 10^5 cfu/mL, 18 h 37°C; for MBC Proteus vulgaris: subculture on Mueller-Hinton II Agar, 24 h 37°C
# Procedure: as §1
# [5] = test system: Bacillus subtilis (ATCC 6633)
# Procedure: as §1
# [6] = test system: Klebsiella pneumoniae (ATCC 700603)
# Procedure: as §1
# [7] = test system: Staphylococcus epidermidis (PCM 2118)
# Procedure: as §1
# [8] = test system: Candida tropicalis (PCM 2681); conditions: PCM 2681, 48 h
# Procedure: as §1
# [9] = test system: Escherichia coli (ATCC 25922); conditions: ATCC 25922, TFA salt, triplicate; for MIC Escherichia coli: Mueller-Hinton broth, 10^5 cfu/mL, 18 h 37°C; for MBC Escherichia coli: subculture on Mueller-Hinton II Agar, 24 h 37°C
# Procedure: as §1
# [10] = test system: Candida albicans (ATCC 10231); conditions: ATCC 10231, 48 h
# Procedure: as §1
# [11] = test system: Aspergillus brasiliensis (ATCC 16404); conditions: ATCC 16404, 48 h
# Procedure: as §1
# [12] = test system: Staphylococcus aureus (ATCC 25923); conditions: ATCC 25923, TFA salt; for MBC Staphylococcus aureus: MIC wells subcultured on Mueller-Hinton II Agar, 24 h 37°C, triplicate; for MIC Staphylococcus aureus: Mueller-Hinton broth, 10^5 cfu/mL, 18 h 37°C, triplicate on three days
# Procedure: as §1
# [13] = ATCC 29212, TFA salt, triplicate
# [14] = ATCC 29212, TFA salt, Mueller-Hinton broth, 10^5 cfu/mL, 18 h 37°C, triplicate
# [15] = ATCC 700603, TFA salt, Mueller-Hinton broth, 10^5 cfu/mL, 18 h 37°C, triplicate
# [16] = ATCC 700603, TFA salt, subculture on Mueller-Hinton II Agar, 24 h 37°C, triplicate
# [17] = ATCC 9027, TFA salt, Mueller-Hinton broth, 10^5 cfu/mL, 18 h 37°C, triplicate
# [18] = ATCC 9027, TFA salt, triplicate
SMILES,MIC Proteus vulgaris [4] [µg/mL],"MIC Bacillus subtillis ([5]; ATCC 6633, 18 h) [µg/mL]","MIC Staphylococcus epidermidis ([7]; PCM 2118, 18 h) [µg/mL]",MIC Candida tropicalis [8] [µg/mL],MIC Escherichia coli [9] [µg/mL],MIC Candida albicans [10] [µg/mL],MIC Aspergillus brasiliensis [11] [µg/mL],MIC Staphylococcus aureus [12] [µg/mL],"MIC Enterococcus fecalis [2, 14] [µg/mL]","MIC Klebsiella pneumoniae [6, 15] [µg/mL]","MBC Enterococcus fecalis [2, 13] [µg/mL]",MBC Proteus vulgaris [4] [µg/mL],"MBC Bacillus subtillis ([5]; ATCC 6633, 24 h) [µg/mL]","MBC Staphylococcus epidermidis ([7]; PCM 2118, 24 h) [µg/mL]",MFC Candida tropicalis [8] [µg/mL],MBC Escherichia coli [9] [µg/mL],MFC Candida albicans [10] [µg/mL],MFC Aspergillus brasiliensis [11] [µg/mL],MBC Staphylococcus aureus [12] [µg/mL],"MBC Klebsiella pneumoniae [6, 16] [µg/mL]",also measured
CCCCCCCCCC(=O)N[C@@H](CCCCN)C(=O)NCC(=O)N[C@@H](CCCCN)C(N)=O [C10-KGK-NH2] (Decanoyl-Lys-Gly-Lys-NH2),>2000,512,512,512,>2000,1000,1000,>2000,>2000,>2000,>2000,>2000,1000,512,1000,>2000,1000,1000,>2000,>2000,"MBC Pseudomonas aeruginosa [1]: 2000 µg/mL; MIC Pseudomonas aeruginosa ([3]; ATCC 9027, 18 h): 2000 µg/mL"
CCCCCCCCCC(=O)N[C@@H](CCCCN)C(=O)NCC(N)=O [C10-KG-NH2] (Decanoyl-Lys-Gly-NH2),>2000,512,512,1000,>2000,1000,1000,>2000,–,–,>1000,>2000,512,1000,2000,>2000,2000,2000,>2000,–,"MBC Pseudomonas aeruginosa [1]: 2000 µg/mL; MIC Enterococcus fecalis ([2]; ATCC 29212, 18 h): 1000 µg/mL; MIC Pseudomonas aeruginosa ([3]; ATCC 9027, 18 h): 1000 µg/mL; MIC Klebsiella pneumoniae ([6]; ATCC 700603, 18 h): 1000 µg/mL; MBC Klebsiella pneumoniae ([6]; ATCC 700603, 24 h): 2000 µg/mL"
CCCCCCCC(=O)N[C@@H](CCCCN)C(=O)NCC(=O)N[C@@H](CCCCN)C(=O)NCC(N)=O [C8-KGKG-NH2] (Octanoyl-KGKG-NH2),>2000,–,–,2000,>2000,2000,2000,>2000,>2000,>2000,>2000,>2000,–,–,2000,>2000,2000,2000,>2000,>2000,"MIC Pseudomonas aeruginosa [3, 17]: >2000 µg/mL; MBC Pseudomonas aeruginosa [3, 18]: >2000 µg/mL; MIC Bacillus subtillis ([5]; ATCC 6633, TFA salt, Mueller-Hinton broth, 10^5 cfu/mL, 18 h 37°C, triplicate): >2000 µg/mL; MBC Bacillus subtillis ([5]; ATCC 6633, TFA salt, subculture on Mueller-Hinton II Agar, 24 h 37°C, triplicate): >2000 µg/mL; MIC Staphylococcus epidermidis ([7]; PCM 2118, TFA salt, Mueller-Hinton broth, 10^5 cfu/mL, 18 h 37°C, triplicate): >2000 µg/mL; MBC Staphylococcus epidermidis ([7]; PCM 2118, TFA salt, subculture on Mueller-Hinton II Agar, 24 h 37°C, triplicate): >2000 µg/mL"
CCCCCCCC(=O)N[C@@H](CCCCN)C(=O)N[C@@H](CCCCN)C(=O)N[C@@H](CCCCN)C(N)=O [C8-KKK-NH2],>2000,1000,256,2000,>2000,2000,2000,>2000,>2000,>2000,>2000,>2000,1000,512,2000,>2000,2000,2000,>2000,>2000,"MIC Pseudomonas aeruginosa [3, 17]: >2000 µg/mL; MBC Pseudomonas aeruginosa [3, 18]: >2000 µg/mL"

# Now from value to compound, other results behind:
MIC Proteus vulgaris [4] [µg/mL],"MIC Bacillus subtillis ([5]; ATCC 6633, 18 h) [µg/mL]","MIC Staphylococcus epidermidis ([7]; PCM 2118, 18 h) [µg/mL]",MIC Candida tropicalis [8] [µg/mL],MIC Escherichia coli [9] [µg/mL],MIC Candida albicans [10] [µg/mL],MIC Aspergillus brasiliensis [11] [µg/mL],MIC Staphylococcus aureus [12] [µg/mL],"MIC Enterococcus fecalis [2, 14] [µg/mL]","MIC Klebsiella pneumoniae [6, 15] [µg/mL]",SMILES,"MBC Enterococcus fecalis [2, 13] [µg/mL]",MBC Proteus vulgaris [4] [µg/mL],"MBC Bacillus subtillis ([5]; ATCC 6633, 24 h) [µg/mL]","MBC Staphylococcus epidermidis ([7]; PCM 2118, 24 h) [µg/mL]",MFC Candida tropicalis [8] [µg/mL],MBC Escherichia coli [9] [µg/mL],MFC Candida albicans [10] [µg/mL],MFC Aspergillus brasiliensis [11] [µg/mL],MBC Staphylococcus aureus [12] [µg/mL],"MBC Klebsiella pneumoniae [6, 16] [µg/mL]",also measured
>2000,512,512,512,>2000,1000,1000,>2000,–,–,CCCCCCCCCC(=O)N[C@@H](CCCCN)C(=O)NCC(=O)N[C@@H](CCCCN)C(=O)NCC(N)=O [C10-KGKG-NH2] (Decanoyl-KGKG-NH2),>2000,>2000,1000,512,2000,>2000,2000,2000,>2000,–,"MBC Pseudomonas aeruginosa [1]: 2000 µg/mL; MIC Enterococcus fecalis ([2]; ATCC 29212, 18 h): 2000 µg/mL; MIC Pseudomonas aeruginosa ([3]; ATCC 9027, 18 h): 1000 µg/mL; MIC Klebsiella pneumoniae ([6]; ATCC 700603, 18 h): 2000 µg/mL; MBC Klebsiella pneumoniae ([6]; ATCC 700603, 24 h): 2000 µg/mL"
>2000,128,128,2000,>2000,2000,1000,>2000,>2000,>2000,CCCCCCCCCC(=O)N[C@@H](CCCCN)C(=O)N[C@@H](CCCCN)C(=O)N[C@@H](CCCCN)C(N)=O [C10-KKK-NH2],>2000,>2000,256,256,2000,>2000,2000,2000,>2000,>2000,"MIC Pseudomonas aeruginosa [3, 17]: >2000 µg/mL; MBC Pseudomonas aeruginosa [3, 18]: >2000 µg/mL"
